Experimental data: ChEMBL document CHEMBL1201862, “PubChem BioAssay data set” (2004)
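How tested: cells in 96-well plates exposed to compound for 48 hours at five concentrations. GI50: concentration for 50% inhibition of growth.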 The source made the active and inactive calls. No stated cut-off is given here; in the data, active = GI50 up to about 1.1 µM and inactive = higher.

How the values were obtained:
Assay in all cases: DTP human tumour cell line panel, 48 h
[1] = tested on: RPMI-8226
[2] = tested on: OVCAR-3
[3] = tested on: A498
[4] = tested on: OVCAR-5
[5] = tested on: SN12C
[6] = tested on: SNB-75
[7] = tested on: SNB-19
[8] = tested on: NCI-H522
[9] = tested on: IGROV-1
[10] = tested on: HCT-116
[11] = tested on: SK-MEL-2
[12] = tested on: ACHN
[13] = tested on: U-251
[14] = tested on: HCC 2998
[15] = tested on: KM12
[16] = tested on: CAKI-1
[17] = tested on: OVCAR-4

Measured: GI50

Brc1ccc(C[P+]2(c3ccccc3)CCCCC2)cc1.[O-][Cl+3]([O-])([O-])[O-]
inactive: [1] 25.8 µM | [2] 43.6 µM | [3] > 100 µM | [4] > 100 µM | [5] > 100 µM | [6] 26.2 µM | [7] 61.4 µM | [8] 19 µM | [9] 81.3 µM | [10] 68.7 µM | [11] 33.7 µM | [12] > 100 µM | [13] 29.6 µM | [14] 36.9 µM | [15] 56.1 µM

C#C[C@@H](CCCC)OC(=O)N[C@H](C)c1ccccc1
inactive: [1] 23 µM | [16] 42.9 µM | [17] 39.2 µM | [2] 35.4 µM | [4] 33 µM | [5] 71.6 µM | [6] 33.3 µM | [7] 93.3 µM | [8] 1.74 µM | [9] 23 µM | [10] 34.3 µM | [11] 23.4 µM | [12] 43.8 µM | [13] 37.4 µM | [14] 1.96 µM | [15] 39.7 µM

Clc1ccc(OCc2nnc3n2N=C(c2ccccc2)CS3)c(Cl)c1
inactive: [16] 7.33 µM | [17] 50.9 µM | [2] > 10 µM | [3] 2.24 µM | [4] 5.78 µM | [6] 3.02 µM | [7] 3.78 µM | [8] 3.81 µM | [9] 6.4 µM | [10] 2.67 µM | [11] > 100 µM | [12] 29 µM | [13] 4.81 µM | [14] > 100 µM | [15] > 100 µM

O=C1/C(=C/c2ccc(Cl)cc2)COc2ccc(Br)cc21
inactive: [1] 6.22 µM | [2] > 100 µM | [3] > 100 µM | [4] > 100 µM | [6] > 100 µM | [8] 69.7 µM | [9] > 100 µM | [10] > 100 µM | [11] > 100 µM | [12] > 100 µM | [13] > 100 µM | [14] > 100 µM | [15] > 100 µM

COC(=O)CC(NC(=O)OCc1ccccc1)C(C(=O)OCc1ccccc1)C(C)(OC)OC (stereo unspecified)
inactive: [1] 10 µM | [17] 28.6 µM | [2] 21.3 µM | [3] 3.95 µM | [5] 30.5 µM | [6] 16.4 µM | [7] 38.2 µM | [9] 19.6 µM | [10] 34.3 µM | [11] 17.6 µM | [12] 26.4 µM | [13] 27 µM | [14] 38 µM

CCCCCCCCCCCCCC(=O)OCC(C[As](=O)(O)O)OC(=O)CCCCCCCCCCCCC (stereo unspecified)
inactive: [1] > 100 µM | [16] > 100 µM | [17] > 100 µM | [2] > 100 µM | [3] > 100 µM | [5] 92 µM | [6] > 100 µM | [7] > 100 µM | [8] > 100 µM | [9] > 100 µM | [10] > 100 µM | [11] > 100 µM | [12] > 100 µM | [13] 43.9 µM | [14] > 100 µM | [15] > 100 µM

COc1c(C)n(CCO)ccc1=O
inactive: [1] > 100 µM | [16] > 100 µM | [17] > 100 µM | [2] > 100 µM | [3] > 100 µM | [4] > 100 µM | [5] > 100 µM | [6] > 100 µM | [7] > 100 µM | [8] > 100 µM | [10] > 100 µM | [11] > 100 µM | [12] > 100 µM | [13] > 100 µM | [15] > 100 µM

COC(=O)C(Br)C1CCc2ccccc21 (stereo unspecified)
inactive: [1] 71.9 µM | [16] > 100 µM | [17] 53.2 µM | [2] 63.1 µM | [3] > 100 µM | [4] > 100 µM | [5] > 100 µM | [7] 82.2 µM | [9] > 100 µM | [10] > 100 µM | [12] > 100 µM | [13] > 100 µM | [14] > 100 µM

CC(C)C1=CC(=O)C(C)(C2=NC(C)(C)CO2)c2ccccc21 (stereo unspecified)
inactive: [1] 78.2 µM | [16] > 100 µM | [17] > 100 µM | [2] > 100 µM | [5] > 100 µM | [6] 96.4 µM | [7] > 100 µM | [8] 32.9 µM | [9] > 100 µM | [10] > 100 µM | [11] > 100 µM | [12] > 100 µM | [13] > 100 µM | [15] > 100 µM

N#CCC(=O)Nc1cccc(C(F)(F)F)c1
inactive: [16] > 100 µM | [17] > 100 µM | [2] 84.3 µM | [3] > 100 µM | [4] > 100 µM | [5] > 100 µM | [6] > 100 µM | [7] > 100 µM | [8] > 100 µM | [9] > 100 µM | [10] > 100 µM | [11] > 100 µM | [12] > 100 µM | [13] > 100 µM | [14] > 100 µM | [15] > 100 µM
